Here are results for nine molecules from patent publication US12509462B2, “3-(phenylsulfonyl)-[1,2,3]triazolo[1,5A]quinazolin-5(4H)-one derivatives” (BIOVERSYS AG, priority 2018, dated 2025).

As a reminder, the IC95 is the concentration at which the effect reaches the 95% level. In general, IC50 refers to the midpoint of a concentration-inhibition curve. A high value points to lower potency. A word on the MIC: it is the smallest concentration in the dilution series that meets the test's criterion for growth inhibition.

Converted amounts (≈) assume the structure as drawn.

Series [1] deals with Staphylococcus aureus MRSA strain (USA300 isolate). The experiment in a line: Hemolysis Assay II (exotoxin-mediated lysis of rabbit red blood cells by culture filtrate). As to conditions: Erythrocyte; for minimal effective concentration / IC95: 18 h; for minimal effective concentration: absorbance <2× the average of the complete inhibition control, read-out: Hemolysis assay II MEC (minimal effective concentration); for IC95: read-out: Hemolysis assay II IC95; for IC50: 18 h culture in CA-MHB, rabbit red blood cells. In kind it is cell-based.

A further series relates to HepG2. As to conditions: human, 48 h.
For another series, the system named is MRSA. The experiment in a line: MIC by broth microdilution in CA-MHB (CLSI). As to conditions: Staphylococcus aureus, 18 h, read-out: MIC on MRSA. (In general: Dilution methods test growth across graded concentrations, often in twofold steps.)

Regarding `COCCCOc1ccc2c(=O)[nH]c3c(S(=O)(=O)c4ccc(C)cc4C)nnn3c2c1` [Compound 40, 3-(2,4-dimethylphenyl)sulfonyl-8-(3-methoxypropoxy)-4H-triazolo[1,5-a]quinazolin-5-one], in series [1], the minimal effective concentration was found to be 3 µg/mL, the IC95 amounted to 4.4 µg/mL (≈ 9.94 µM) and inhibition was half-maximal at 1.05 µg/mL (≈ 2.37 µM) (IC50). Further, in the series on HepG2, the “LD50 HepG2” value was “>=100 μM”. Moreover, in the series with MRSA, the minimal inhibitory concentration (MIC) was at least 100 µM.
The corresponding values for `COCCOc1cc2c(cc1O)c(=O)[nH]c1c(S(=O)(=O)c3ccc(C)cc3C)nnn12` [Compound 58, 3-(2,4-dimethylphenyl)sulfonyl-7-hydroxy-8-(2-methoxyethoxy)-4H-triazolo[1,5-a]quinazolin-5-one] are 4 µg/mL, 4.1 µg/mL (≈ 9.22 µM), 0.9 µg/mL (≈ 2.02 µM), “>=100 μM” and at least 100 µM.
The corresponding values for `Cc1cc(Br)c(S(=O)(=O)c2nnn3c2[nH]c(=O)c2ccccc23)cc1C` [Compound 44, 3-(2-bromo-4,5-dimethyl-phenyl)sulfonyl-4H-triazolo[1,5-a]quinazolin-5-one] are 6 µg/mL, 7.2 µg/mL (≈ 16.6 µM), 1.85 µg/mL (≈ 4.27 µM), “>=100 μM” and at least 100 µM.
The corresponding values for `Cc1ccc(S(=O)(=O)c2nnn3c2[nH]c(=O)c2c(Cl)cccc23)c(C)c1` [Compound 2, 6-chloro-3-(2,4-dimethylphenyl)sulfonyl-4H-triazolo[1,5-a]quinazolin-5-one] are 2 µg/mL, 2.5 µg/mL (≈ 6.43 µM), 0.85 µg/mL (≈ 2.19 µM), “>=100 μM” and at least 100 µM.
`Cc1ccc(S(=O)(=O)c2nnn3c2[nH]c(=O)c2ccc(NCCN4CCOCC4)cc23)c(C)c1` [Compound 48, 3-(2,4-dimethylphenyl)sulfonyl-8-(2-morpholinoethylamino)-4H-triazolo[1,5-a]quinazolin-5-one]: in series [1], the minimal effective concentration was found to be 8 µg/mL, the IC95 is 7 µg/mL (≈ 14.5 µM) and the concentration for half-maximal inhibition (IC50) came to 1.6 µg/mL (≈ 3.32 µM). For the same molecule, the “LD50 HepG2” value with HepG2 amounted to 50 µM. In addition, in the series on MRSA, the minimum inhibitory concentration (MIC) was determined as 50 µM (≈ 24.1 µg/mL).
With `Cc1ccc(S(=O)(=O)c2nnn3c2[nH]c(=O)c2cccc(Cl)c23)c(C)c1` [Compound 4, 9-chloro-3-(2,4-dimethylphenyl)sulfonyl-4H-triazolo[1,5-a]quinazolin-5-one], in series [1], the minimal effective concentration came to 8 µg/mL, the 95% effect concentration (IC95) worked out at 5.2 µg/mL (≈ 13.4 µM) and the IC50 was 2.3 µg/mL (≈ 5.92 µM). In addition, the “LD50 HepG2” value in the series with HepG2 stood at 50 µM. Besides, in the series with MRSA, the MIC was at least 100 µM.
As for `COc1ccc2c(=O)[nH]c3c(S(=O)(=O)c4ccc(C5CC5)cc4)nnn3c2c1` [Compound 21, 3-(4-cyclopropylphenyl)sulfonyl-8-methoxy-4H-triazolo[1,5-a]quinazolin-5-one], in series [1], the minimal effective concentration came to 4 µg/mL; the IC95 was found to be 3.4 µg/mL (≈ 8.58 µM); the midpoint of inhibition, the IC50, lay at 1.5 µg/mL (≈ 3.78 µM). Besides, in the series on HepG2, the “LD50 HepG2” value was “>=100 μM”. Further, the MIC with MRSA was at least 100 µM.
For the molecule `Cc1ccc(S(=O)(=O)c2nnn3c2[nH]c(=O)c2ccc(F)cc23)c(C)c1` [Compound 7, 3-(2,4-dimethylphenyl)sulfonyl-8-fluoro-4H-triazolo[1,5-a]quinazolin-5-one], in series [1], the minimal effective concentration came out at 4 µg/mL, the IC95 amounted to 4.8 µg/mL (≈ 12.9 µM) and half-maximal inhibition (IC50) was put at 1.7 µg/mL (≈ 4.57 µM). Moreover, the “LD50 HepG2” value in the series with HepG2 was “>=100 μM”. The MIC in the series with MRSA is at least 100 µM.
As to `CC(C)c1ccc(S(=O)(=O)c2nnn3c2[nH]c(=O)c2c(Cl)cccc23)cc1` [Compound 8, 6-chloro-3-(4-isopropylphenyl)sulfonyl-4H-triazolo[1,5-a]quinazolin-5-one], in series [1], the minimal effective concentration was determined as 4 µg/mL, the IC95 worked out at 3.8 µg/mL (≈ 9.43 µM) and half-maximal inhibition (IC50) was put at 2.2 µg/mL (≈ 5.46 µM). In the series with HepG2, the “LD50 HepG2” value is given as “>=100 μM”. The MIC in the series with MRSA was at least 100 µM.
